For 24 compounds, convulsion dose and cum conv dose results are on record in US20070197632A1, “Aminocyclohexyl ether compounds and uses thereof” (Cardiome Pharma Corp, priority 2003, published 2007).

Where a name gives a salt, the structure may show the parent alone.

In this data set the test system is conscious rats. Nature of the data set: Determination of CNS toxicity: convulsions in conscious rats under intravenous infusion. The conditions noted are these: Table 5, comparative example compounds; for convulsion dose: minimum iv infusion rate at which partial or complete convulsions are observed; for cum conv dose: total amount of drug infused when convulsions are first observed.

`c1cc(CCO[C@H]2CCCCC2N2CCOCC2)c2ccsc2c1` (some centres unmarked) [Comparative Example Compound 37] returned a convulsion dose of 8 µmol/kg/min and a cum conv dose of 54 µmol/kg.
As for `c1ccc2cc(OCCO[C@H]3CCCCC3N3CCOCC3)ccc2c1` (stereo partly drawn) [Comparative Example Compound 33, (1R,2R)/(1S,2S)-[2-(4-morpholinyl)-1-[2-(2-naphthoxy)ethoxy]]-cyclohexane], the convulsion dose is 8 µmol/kg/min.
Still for that read-out and setting: as for `Cl.O=C1CCN(C2CCCC[C@@H]2OCC(c2ccccc2)c2ccccc2)C1` (stereo partly drawn) [Comparative Example Compound 47, (1R,2R)/(1S,2S)-2-(3-ketopyrrolidinyl)-1-(2,2-diphenylethoxy)cyclo-hexane monohydrochloride], the figure is 21 µmol/kg/min.
`COc1ccc(CCOC2CCCC[C@H]2N2CCC(=O)C2)cc1OC.Cl` (stereo partly drawn) [Comparative Example Compound 18, 1-{(1R,2R)/(1S,2S)-2-[2-(3,4-dimethoxyphenyl)-ethoxy]cyclohexyl}-pyrrolidin-3-one hydrochloride]: the convulsion dose turned out to be 32 µmol/kg/min.
On to `Cl.OC1CCN(C2CCCC[C@@H]2OCCc2c(Cl)cccc2Cl)C1` (stereo partly drawn) [Comparative Example Compound 23, (3R)/(3S)-1-{(1R,2R)/(1S,2S)-2-[2-(2,6-dichlorophenyl)-ethoxy]cyclohexyl}-pyrrolidin-3-ol hydrochloride], for which the convulsion dose amounted to 8 µmol/kg/min and the cum conv dose worked out at 65 µmol/kg.
Take `COc1ccc(CCO[C@H]2CCCCC2N2CCOCC2)cc1OC` (stereo partly drawn) [Comparative Example Compound 35, (1R,2R)/(1S,2S)-[2-(4-morpholinyl)-1-(3,4-dimethoxy-phenethoxy)]-cyclohexane]: the convulsion dose turned out to be 16 µmol/kg/min.
The same measure, in the same setting: as for `Cl.FC(F)(F)c1ccccc1CCO[C@H]1CCCC[C@H]1N1CCOCC1` (racemic) [Comparative Example Compound 42, (1R,2S)/(1S,2R)-2-(4-morpholinyl)-1-[(2-trifluoromethyl)-phenethoxy]-cyclohexane monohydrochloride], the figure is 16 µmol/kg/min.
`Cl.Clc1cccc(Cl)c1CCO[C@@H]1CCCC[C@H]1N1CCSC1` [Comparative Example Compound 48, (1R,2R)/(1S,2S)-2-(3-thiazolidinyl)-1-(2,6-dichlorophenethoxy)cyclo-hexane monohydrochloride] showed a convulsion dose of 8 µmol/kg/min and a cum conv dose of 44.4 µmol/kg.
`Cl.OC1CCN(C2CCCC[C@@H]2OCCc2ccccc2Br)C1` (stereo partly drawn) [Comparative Example Compound 24, (3R)/(3S)-1-{(1R,2R)/(1S,2S)-2-[2-(2-bromophenyl)-ethoxy]cyclohexyl}-pyrrolidin-3-ol hydrochloride] returned a convulsion dose of 13 µmol/kg/min and a cum conv dose of 67 µmol/kg.
`Brc1ccccc1CCO[C@H]1CCCCC1N1CCOCC1` (stereo partly drawn) [Comparative Example Compound 39, (1R,2R)/(1S,2S)-[2-(4-morpholinyl)-1-(2-bromophenethoxy)]-cyclohexane] showed a convulsion dose of 16 µmol/kg/min.
With `Cl.OC1CCN([C@@H]2CCCC[C@@H]2OCCc2cccc3ccccc23)C1` (stereo partly drawn) [Comparative Example Compound 25, (3R)/(3S)-1-{(1R,2S)/(1S,2R)-2-[2-(1-naphthyl)ethoxy]-cyclohexyl}-pyrrolidin-3-ol hydrochloride], the convulsion dose was found to be 16 µmol/kg/min and the cum conv dose came out at 70 µmol/kg.
The like results for `Cl.Clc1cccc(Cl)c1COC1CCCC[C@H]1N1CCOCC1` (stereo partly drawn) [Comparative Example Compound 44, (1R,2R)/(1S,2S)-2-(4-morpholinyl)-1-[(2,6-dichlorophenyl)methoxy]-cyclohexane monohydrochloride] were, in that order, 16 µmol/kg/min and 97 µmol/kg.
`Brc1cccc(CCO[C@H]2CCCCC2N2CCOCC2)c1` (stereo partly drawn) [Comparative Example Compound 38, (1R,2R)/(1S,2S)-[2-(4-morpholinyl)-1-(3-bromophenethoxy)]-cyclohexane] came in with a convulsion dose of 16 µmol/kg/min.
Still for that read-out and setting: as for `Cl.Clc1cccc(Cl)c1CCOC1CCCC[C@H]1N1CCSC1` (stereo partly drawn) [Comparative Example Compound 48, (1R,2R)/(1S,2S)-2-(3-thiazolidinyl)-1-(2,6-dichlorophenethoxy)cyclo-hexane monohydrochloride], the figure is 43 µmol/kg/min.
With `c1ccc2c(CCO[C@H]3CCCCC3N3CCOCC3)cccc2c1` (stereo partly drawn) [Comparative Example Compound 31, (1R,2R)/(1S,2S)-[2-(4-morpholinyl)-1-(1-naphthenethoxy)]-cyclohexane], the convulsion dose worked out at 16 µmol/kg/min and the cum conv dose is 93 µmol/kg.
Take `CC(=O)OC1CCN([C@@H]2CCCCC2OCCc2cccc3ccccc23)C1.Cl` (stereo partly drawn) [Comparative Example Compound 43, (1R,2R)/(1S,2S)-2-(3-acetoxypyrrolidinyl)-1-(1-naphthenethoxy)cyclo-hexane monohydrochloride]: the convulsion dose was determined as 8 µmol/kg/min and the cum conv dose was 65 µmol/kg.
The like results for `Brc1ccc(CCO[C@H]2CCCCC2N2CCOCC2)cc1` (some centres unmarked) [Comparative Example Compound 32] were, in that order, 12 µmol/kg/min and 91 µmol/kg.
Take `Cl.OC1CCN(C2CCCC[C@@H]2OCCn2ccc3ccccc32)C1` (some centres unmarked) [Comparative Example Compound 28]: the convulsion dose was 16 µmol/kg/min.
In turn, `Brc1ccc(OCCO[C@H]2CCCCC2N2CCOCC2)cc1` (stereo partly drawn) [Comparative Example Compound 34, (1R,2R)/(1S,2S)-[2-(4-morpholinyl)-1-[2-(4-bromophenoxy)-ethoxy]]cyclohexane] came in with a cum conv dose of 83 µmol/kg.
Turning to `COc1ccc(CCO[C@H]2CCCCC2N2CCCC2)cc1OC` (some centres unmarked) [Comparative Example Compound 17, monohydrochloride], the convulsion dose turned out to be 21.33 µmol/kg/min and the cum conv dose stood at 118 µmol/kg.
Turning to `Cl.O[C@@H]1CCN(C2CCCC[C@@H]2OCCc2ccccc2C(F)(F)F)C1` (some centres unmarked) [Comparative Example Compound 27], the convulsion dose turned out to be 16 µmol/kg/min.
On the same count and under the same terms, in the case of `Cl.OC1CCN(C2CCCC[C@@H]2OCCc2cccc3ccccc23)C1` (stereo partly drawn) [Comparative Example Compound 26, (3R)/(3S)-1-{(1R,2R)/(1S,2S)-2-[2-(1-naphthyl)ethoxy]-cyclohexyl}-pyrrolidin-3-ol hydrochloride] it was 8 µmol/kg/min.
Same read-out and setting: in the case of `Cl.OC1CCN(C2CCCC[C@@H]2OCCc2c(Cl)cccc2Cl)C1` (stereo partly drawn) [Comparative Example Compound 46, (1R,2R)/(1S,2S)-2-(3-hydroxypyrrolidinyl)-1-(2,6-dichlorophenethoxy)cyclo-hexane monohydrochloride] it was 8 µmol/kg/min.
`COc1ccc(CCOC2CCCC[C@H]2N2CCN(C(=O)Cc3ccc(OC)c(OC)c3)CC2)cc1OC.Cl.Cl` (stereo partly drawn) [Comparative Example Compound 22, 1-[(3,4-dimethoxyphenyl)acetyl]-4-{(1R,2R)/(1S,2S)-2-[2-(3,4-dimethoxyphenyl)-ethoxy]cyclohexyl}-piperazine hydrochloride] displayed a convulsion dose of 21.33 µmol/kg/min and a cum conv dose of 133 µmol/kg.
